Data as given in ChEMBL document CHEMBL1201862, “PubChem BioAssay data set” (2004).
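Following 48 hours of exposure in 96-well plates, responses at five concentrations were used to interpolate endpoints linearly. GI50 marks 50% less growth.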 The source made the active and inactive calls. No stated cut-off is given here; in the data, active = GI50 up to about 1.1 µM and inactive = higher.

Legend:
Test in all cases: NCI anticancer screen, dose series, 48 h
A549 = tested on: A549
786-0 = tested on: 786-0
CAKI-1 = tested on: CAKI-1
UO-31 = tested on: UO-31
Hs-578T = tested on: Hs-578T
HCC 2998 = tested on: HCC 2998
SK-OV-3 = tested on: SK-OV-3
HCT-116 = tested on: HCT-116
SW-620 = tested on: SW-620
COLO 205 = tested on: COLO 205
CCRF-CEM = tested on: CCRF-CEM
SF-268 = tested on: SF-268
HOP-92 = tested on: HOP-92
ACHN = tested on: ACHN
RPMI-8226 = tested on: RPMI-8226
SF-539 = tested on: SF-539
SK-MEL-28 = tested on: SK-MEL-28
OVCAR-4 = tested on: OVCAR-4
SK-MEL-2 = tested on: SK-MEL-2
SK-MEL-5 = tested on: SK-MEL-5

Row | Compound | GI50 (A549) | GI50 (786-0) | GI50 (CAKI-1) | GI50 (UO-31) | GI50 (Hs-578T) | GI50 (HCC 2998) | GI50 (SK-OV-3) | GI50 (HCT-116) | GI50 (SW-620) | GI50 (COLO 205) | GI50 (CCRF-CEM) | GI50 (SF-268) | GI50 (HOP-92) | GI50 (ACHN) | GI50 (RPMI-8226) | GI50 (SF-539) | GI50 (SK-MEL-28) | GI50 (OVCAR-4) | GI50 (SK-MEL-2) | GI50 (SK-MEL-5)
1 | COc1ccc(C2CC(c3ccc4ccccc4c3O)=NN2)cc1OC (stereo not given) | 38 µM (inactive) | 37.8 µM (inactive) | > 100 µM (inactive) | 46.2 µM (inactive) | 76.7 µM (inactive) | 45.6 µM (inactive) | > 100 µM (inactive) | 38.6 µM (inactive) | 39.7 µM (inactive) | 38.7 µM (inactive) | 14.9 µM (inactive) | 47.5 µM (inactive) | > 100 µM (inactive) | 54.5 µM (inactive) | 30.4 µM (inactive) | 31.3 µM (inactive) | 76.4 µM (inactive) | 92.7 µM (inactive) | 52 µM (inactive) | 58.5 µM (inactive)
2 | CS(C)(=O)=N/C=C\C(=O)C(Cl)(Cl)Cl | > 100 µM (inactive) | > 100 µM (inactive) | > 100 µM (inactive) | > 100 µM (inactive) | > 100 µM (inactive) | > 100 µM (inactive) | > 100 µM (inactive) | 98.6 µM (inactive) | > 100 µM (inactive) | > 100 µM (inactive) | 44.1 µM (inactive) | > 100 µM (inactive) | > 100 µM (inactive) | > 100 µM (inactive) | 83 µM (inactive) | > 100 µM (inactive) | > 100 µM (inactive) | > 100 µM (inactive) | 46.8 µM (inactive) | > 100 µM (inactive)
3 | COc1cc2nc(-c3c(F)cccc3F)n(Cc3c(F)cccc3F)c2cc1Cc1c(F)cccc1F | > 47.8 µM (inactive) | > 100 µM (inactive) | 8.77 µM (inactive) | 9.1 µM (inactive) | > 20.5 µM (inactive) | 20.6 µM (inactive) | > 100 µM (inactive) | > 26.7 µM (inactive) | > 100 µM (inactive) | > 100 µM (inactive) | > 100 µM (inactive) | > 72.1 µM (inactive) | 2.79 µM (inactive) | > 42.6 µM (inactive) | 7.71 µM (inactive) | > 68.7 µM (inactive) | 0.35 µM (active) | 1.84 µM (inactive) | > 49.8 µM (inactive) | 6.28 µM (inactive)
4 | O=C(CSCC(=O)N/N=C\c1cccc([N+](=O)[O-])c1)N/N=C\c1cccc([N+](=O)[O-])c1 | 66.5 µM (inactive) | 18.2 µM (inactive) | 23.3 µM (inactive) | 34.4 µM (inactive) | 45.4 µM (inactive) | 30.9 µM (inactive) | 52.1 µM (inactive) | 27.7 µM (inactive) | > 100 µM (inactive) | > 100 µM (inactive) | > 100 µM (inactive) | 39.9 µM (inactive) | 32.4 µM (inactive) | 14 µM (inactive) | > 100 µM (inactive) | 24 µM (inactive) | > 100 µM (inactive) | > 100 µM (inactive) | 37.3 µM (inactive) | > 100 µM (inactive)
5 | CC(=O)Oc1cccc2c(/C=N/NC(N)=S)ncc(C)c12 | 3.81 µM (inactive) | 0.322 µM (active) | 4.17 µM (inactive) | 1.05 µM (active) | 20.6 µM (inactive) | 0.818 µM (active) | 1.46 µM (inactive) | 1.96 µM (inactive) | 4.59 µM (inactive) | 3.4 µM (inactive) | 0.422 µM (active) | 0.357 µM (active) | 3.27 µM (inactive) | 0.445 µM (active) | 1.56 µM (inactive) | 0.207 µM (active) | 13.2 µM (inactive) | 7.41 µM (inactive) | 5.94 µM (inactive) | 1.38 µM (inactive)
6 | C=C(CN(C)C)C1(c2ccccc2)CC2(CCCC2)C(=O)O1 (stereo not given) | > 100 µM (inactive) | 66.5 µM (inactive) | > 100 µM (inactive) | 23.9 µM (inactive) | > 100 µM (inactive) | > 100 µM (inactive) | > 100 µM (inactive) | 70.3 µM (inactive) | > 100 µM (inactive) | 28.2 µM (inactive) | 20.6 µM (inactive) | > 100 µM (inactive) | 17.9 µM (inactive) | 92.5 µM (inactive) | 88.3 µM (inactive) | > 100 µM (inactive) | > 100 µM (inactive) | > 100 µM (inactive) | > 100 µM (inactive) | > 100 µM (inactive)
